From the supplement of paper PMC8671470

Key:
Details in all cases: 72 h
[1] = tested on: myeloid leukemia patient primary cells Pat.15; test: area under dose-response curve (viability, 1 nM-10 uM) (fraction (0-1)); higher = more sensitive
Experimental: (§1)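 AUC (0–1, higher = more sensitive) of the 5-point dose–response (1 nM–10 µM, 72 h, CellTiter-Glo) in primary AML/CML patient mononuclear cells. 0.030103 is the floor for inactive compounds.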

[2] = tested on: myeloid leukemia patient primary cells Pat.7; test: as above
Experimental: as §1

[3] = tested on: myeloid leukemia patient primary cells Pat.9; test: as above
Experimental: as §1

[4] = tested on: myeloid leukemia patient primary cells Pat.4; test: as above
Experimental: as §1

[5] = tested on: myeloid leukemia patient primary cells Pat.3; test: as above
Experimental: as §1

[6] = tested on: myeloid leukemia patient primary cells Pat.11; test: as above
Experimental: as §1

[7] = tested on: myeloid leukemia patient primary cells Pat.8; test: as above
Experimental: as §1

[8] = tested on: myeloid leukemia patient primary cells Pat.1; test: as above
Experimental: as §1

[9] = tested on: myeloid leukemia patient primary cells Pat.10; test: as above
Experimental: as §1

[10] = tested on: myeloid leukemia patient primary cells Pat.6; test: as above
Experimental: as §1

[11] = tested on: myeloid leukemia patient primary cells Pat.14; test: as above
Experimental: as §1

[12] = tested on: myeloid leukemia patient primary cells Pat.12; test: as above
Experimental: as §1

[13] = tested on: myeloid leukemia patient primary cells Pat.5; test: as above
Experimental: as §1

[14] = tested on: myeloid leukemia patient primary cells Pat.13; test: as above
Experimental: as §1

[15] = tested on: myeloid leukemia patient primary cells Pat.15; test: cell viability (% survival relative to DMSO control); higher = less cytotoxic
Procedure, shortened: (§2)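 Thawed, Ficoll-purified mononuclear cells from AML or CML patients in RPMI 1640 with 10% FBS were seeded at 10,000 cells/well on 384-well plates pre-printed with 70 compounds at five tenfold concentrations, 1–10,000 nM, in duplicate, for 72 h. Viability was read by CellTiter-Glo and normalised to DMSO and 10 μM proteasome-inhibitor wells. Where given, area under the curve came from four-parameter log-logistic fits (drc, PharmacoGx R packages).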

[16] = tested on: myeloid leukemia patient primary cells Pat.7; test: as above
Procedure, shortened: as §2

[17] = tested on: myeloid leukemia patient primary cells Pat.11; test: as above
Procedure, shortened: as §2

[18] = tested on: myeloid leukemia patient primary cells Pat.2; test: as above
Procedure, shortened: as §2

[19] = tested on: myeloid leukemia patient primary cells Pat.10; test: as above
Procedure, shortened: as §2

[20] = tested on: myeloid leukemia patient primary cells Pat.6; test: as above
Procedure, shortened: as §2

HL-60 [21] = test: cell viability (% survival relative to DMSO control); higher = less cytotoxic
Procedure, shortened: (§3)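 HL-60 cells in RPMI 1640 with 10% FBS were rescreened against the full library on 384-well plates at five tenfold concentrations, 1–10,000 nM, in duplicate. Each screen was run with DMSO or 100 nM of one of three metabolic inhibitors, for 72 h at 37 °C, 5% CO2. Viability was read by CellTiter-Glo and normalised to DMSO and 10 μM proteasome-inhibitor wells. Where given, area under the curve came from four-parameter log-logistic fits (drc, PharmacoGx).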

HL-60 [22] = test: area under dose-response curve (viability, 1 nM-10 uM) (fraction (0-1)); higher = more sensitive
Procedure, shortened: as §3

[23] = tested on: myeloid leukemia patient primary cells Pat.2; test: area under dose-response curve (viability, 1 nM-10 uM) (fraction (0-1)); higher = more sensitive
Experimental: as §1

O=C(/C=C/c1ccc(O)c(O)c1)OCCc1ccccc1 [Caffeic acid phenethyl ester]
Details | area under dose-response curve
[1] | 0.145
[2] | 0.323
[3] | 0.563
[4] | 0.328
[5] | 0.467
[6] | 0.14
[7] | 0.297
[8] | 0.155
[9] | 0.539
[10] | 0.168
[11] | 0.242
[12] | 0.201
[13] | 0.411
[14] | 0.082

Details | area under dose-response curve, co-treatment: AZD3965 100 nM | area under dose-response curve, co-treatment: DMSO vehicle | area under dose-response curve, co-treatment: GSK2194069 100 nM | area under dose-response curve, co-treatment: pictilisib 100 nM | cell viability, 1 nM [%] | cell viability, 10 nM [%] | cell viability, 100 nM [%] | cell viability, 1000 nM [%] | cell viability, 10000 nM [%]
HL-60 [22] | 0.0691 | 0.0547 | 0.0593 | 0.138 | – | – | – | – | –
[15] | – | – | – | – | 96.5 | 85.8 | 96.1 | 64.9 | 40.5
[16] | – | – | – | – | 74.4 | 79.4 | 78.2 | 16.3 | < 0
[17] | – | – | – | – | 96.1 | 97.8 | > 100 | 73.5 | 38
[18] | – | – | – | – | 95.4 | 98.6 | > 100 | 89.3 | 64
[19] | – | – | – | – | 88.2 | 63.9 | 33 | 31 | 83.7
[20] | – | – | – | – | 98 | 93.6 | 96.9 | 65.7 | 35.2

cell viability [%], HL-60 [21]
Details | 0.001 µM | 0.01 µM | 0.1 µM | 1 µM | 10 µM
co-treatment: AZD3965 100 nM | 98.9 | 99.96 | 104 | 103 | 27.4
co-treatment: DMSO vehicle | 76 | 95.8 | 98.75 | 98.83 | 33.3
co-treatment: GSK2194069 100 nM | 93.3 | 100.7 | 102 | 97.1 | 33.1
co-treatment: pictilisib 100 nM | 101 | 102 | 96.7 | 81.5 | 22.1

c1cc(-c2cnn3cc(-c4ccc(OCCN5CCCCC5)cc4)cnc23)ccn1 [Dorsomorphin]
Details | area under dose-response curve
[1] | 0.0705
[2] | 0.0504
[3] | 0.488
[4] | 0.182
[5] | 0.0457
[6] | 0.106
[8] | 0.142
[9] | 0.342
[10] | < 0.0301
[11] | < 0.0301
[12] | < 0.0301
[13] | 0.508
[14] | 0.195
[23] | < 0.0301

Details | area under dose-response curve, co-treatment: AZD3965 100 nM | area under dose-response curve, co-treatment: DMSO vehicle | area under dose-response curve, co-treatment: GSK2194069 100 nM | area under dose-response curve, co-treatment: pictilisib 100 nM | cell viability, 1 nM [%] | cell viability, 10 nM [%] | cell viability, 100 nM [%] | cell viability, 1000 nM [%] | cell viability, 10000 nM [%]
HL-60 [22] | 0.0329 | 0.0501 | < 0.0301 | 0.112 | – | – | – | – | –
[15] | – | – | – | – | 88.3 | 90.6 | 95.6 | 92.5 | 24.9
[16] | – | – | – | – | 25.4 | 95.4 | 65 | 89.5 | 30.9
[17] | – | – | – | – | 95.2 | > 100 | 90.4 | 79.8 | 43.8
[18] | – | – | – | – | 95.8 | 99.8 | 92.5 | > 100 | 59.4
[19] | – | – | – | – | 17.6 | 76.4 | 61.4 | 27.6 | 38.4
[20] | – | – | – | – | 84.6 | > 100 | 73.2 | 83.4 | 72.5

cell viability [%], HL-60 [21]
Details | 0.001 µM | 0.01 µM | 0.1 µM | 1 µM | 10 µM
co-treatment: AZD3965 100 nM | 101 | 101 | 99.7 | 99.9 | 56.2
co-treatment: DMSO vehicle | 99.8 | 102 | 99.9 | 95.21 | 63.4
co-treatment: GSK2194069 100 nM | 108 | 102 | 104 | 105 | 63.4
co-treatment: pictilisib 100 nM | 93.5 | 99.7 | 94.8 | 82.3 | 34

C[C@]12C=CC(=O)C=C1CC[C@@H]1[C@@H]2[C@@H](O)C[C@@]2(C)[C@H]1CC[C@]2(O)C(=O)CO [Prednisolone]
Details | area under dose-response curve
[2] | < 0.0301
[3] | < 0.0301
[5] | 0.227
[7] | 0.0885
[8] | < 0.0301
[9] | 0.678
[11] | < 0.0301
[12] | < 0.0301
[13] | < 0.0301
[14] | < 0.0301

Details | area under dose-response curve, co-treatment: AZD3965 100 nM | area under dose-response curve, co-treatment: DMSO vehicle | area under dose-response curve, co-treatment: GSK2194069 100 nM | area under dose-response curve, co-treatment: pictilisib 100 nM | cell viability, 1 nM [%] | cell viability, 10 nM [%] | cell viability, 100 nM [%] | cell viability, 1000 nM [%] | cell viability, 10000 nM [%]
HL-60 [22] | < 0.0301 | < 0.0301 | < 0.0301 | < 0.0301 | – | – | – | – | –
[15] | – | – | – | – | 81.1 | 88.6 | 86.1 | 75.4 | 61.2
[16] | – | – | – | – | 66.5 | 60.7 | 84.5 | 83.6 | 83.4
[17] | – | – | – | – | 96.9 | 93.5 | 85 | 83 | 64.8
[18] | – | – | – | – | 95.6 | 86.1 | 87.2 | 77.3 | 76.4
[19] | – | – | – | – | 73.8 | 39.2 | 17.1 | 31.4 | 2.16
[20] | – | – | – | – | > 100 | 75.7 | 89.4 | 78.5 | 66.2

cell viability [%], HL-60 [21]
Details | 0.001 µM | 0.01 µM | 0.1 µM | 1 µM | 10 µM
co-treatment: AZD3965 100 nM | 82.4 | 96.7 | 103 | 103 | 96.2
co-treatment: DMSO vehicle | 95.9 | 104 | 100 | 103 | 101.5
co-treatment: GSK2194069 100 nM | 94.8 | 101 | 98.4 | 101 | 100
co-treatment: pictilisib 100 nM | 90 | 92.8 | 99.1 | 105.5 | 95.8
